Reference: PubChem BioAssay (NCI)
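Cultured in 96-well plates, cells were exposed to test compound for 48 hours across five concentrations. TGI marks complete inhibition of growth.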

Each molecule was assayed on NCI-H226 lung (assay: NCI anticancer screen, dose series, 48 h).
For `CCOC(=O)C1(Cc2ccc3c(c2)CCC3)Cc2cc3c(cc2C1)CCC3`, the TGI was 81.9 µM.
In the case of `C[C@@H]1C[C@H]2[C@@H]3CCC4=CC(=O)C=C[C@]4(C)[C@@]3(Cl)[C@@H](Cl)C[C@]2(C)[C@@]1(O)C(=O)COP(=O)(O)O`, the TGI is reported as over 100 µM.
In the case of `COC(=O)Cc1cc(O)c(C/C=C(\C)CC/C=C(\C)C(O)C(=O)C=C(C)C)cc1O` (configuration not stated), the TGI is reported as 51.8 µM.
`COc1ccc(/C=C(/C(=O)c2ccc(Cl)cc2)N2C=CC=CC2=C(C#N)C#N)cc1OC` gave a TGI of 38.4 µM.
Work on `Nc1nc(Cl)c(N)c(NC23CC4CC(CC(C4)C2)C3)n1` yielded a TGI of 4.22 µM.

Each molecule was assayed on NCI-H23 lung (assay: NCI anticancer screen, dose series, 48 h).
Molecule `CCOC(=O)C1(Cc2ccc3c(c2)CCC3)Cc2cc3c(cc2C1)CCC3` has a TGI of over 100 µM.
`C=CCNC1=C2C[C@@H](C)C[C@@H](OC)[C@H](OC(=O)CCCCN)[C@H](C)/C=C(\C)[C@@H](OC(N)=O)[C@H](OC)/C=C\C=C(/C)C(=O)NC(=CC1=O)C2=O` was tested, and the TGI was 30 µM.
`C[C@@H]1C[C@H]2[C@@H]3CCC4=CC(=O)C=C[C@]4(C)[C@@]3(Cl)[C@@H](Cl)C[C@]2(C)[C@@]1(O)C(=O)COP(=O)(O)O` showed a TGI of over 100 µM.
With `O=Cc1cc2c(cc1-c1c(C=O)ccc3c1OCO3)OCO2` the TGI was over 10 µM.
For `COC(=O)Cc1cc(O)c(C/C=C(\C)CC/C=C(\C)C(O)C(=O)C=C(C)C)cc1O` (configuration not stated), the TGI was 93.3 µM.
Work on `COc1ccc(/C=C(/C(=O)c2ccc(Cl)cc2)N2C=CC=CC2=C(C#N)C#N)cc1OC` yielded a TGI of 27.5 µM.
`Nc1nc(Cl)c(N)c(NC23CC4CC(CC(C4)C2)C3)n1` showed a TGI of 8.43 µM.

What follows are molecules tested on NCI-H460 lung (assay: NCI anticancer screen, dose series, 48 h).
`CCOC(=O)C1(Cc2ccc3c(c2)CCC3)Cc2cc3c(cc2C1)CCC3` showed a TGI of 93.5 µM.
For `C=CCNC1=C2C[C@@H](C)C[C@@H](OC)[C@H](OC(=O)CCCCN)[C@H](C)/C=C(\C)[C@@H](OC(N)=O)[C@H](OC)/C=C\C=C(/C)C(=O)NC(=CC1=O)C2=O`, the TGI was 26 µM.
`COC(=O)Cc1cc(O)c(C/C=C(\C)CC/C=C(\C)C(O)C(=O)C=C(C)C)cc1O` (configuration not stated) was tested, and the TGI was 48.3 µM.
In the case of `COc1ccc(/C=C(/C(=O)c2ccc(Cl)cc2)N2C=CC=CC2=C(C#N)C#N)cc1OC`, the TGI is reported as 25.5 µM.
Work on `Nc1nc(Cl)c(N)c(NC23CC4CC(CC(C4)C2)C3)n1` yielded a TGI of 17.7 µM.

What follows are molecules tested on NCI-H522 lung (assay: NCI anticancer screen, dose series, 48 h).
Molecule `CCOC(=O)C1(Cc2ccc3c(c2)CCC3)Cc2cc3c(cc2C1)CCC3` has a TGI of 75.5 µM.
Work on `C=CCNC1=C2C[C@@H](C)C[C@@H](OC)[C@H](OC(=O)CCCCN)[C@H](C)/C=C(\C)[C@@H](OC(N)=O)[C@H](OC)/C=C\C=C(/C)C(=O)NC(=CC1=O)C2=O` yielded a TGI of 28.8 µM.
In the case of `C[C@@H]1C[C@H]2[C@@H]3CCC4=CC(=O)C=C[C@]4(C)[C@@]3(Cl)[C@@H](Cl)C[C@]2(C)[C@@]1(O)C(=O)COP(=O)(O)O`, the TGI is reported as over 100 µM.
With `COC(=O)Cc1cc(O)c(C/C=C(\C)CC/C=C(\C)C(O)C(=O)C=C(C)C)cc1O` (configuration not stated) the TGI was 39.8 µM.
Work on `COc1ccc(/C=C(/C(=O)c2ccc(Cl)cc2)N2C=CC=CC2=C(C#N)C#N)cc1OC` yielded a TGI of 0.953 µM.
`Nc1nc(Cl)c(N)c(NC23CC4CC(CC(C4)C2)C3)n1` was tested, and the TGI was 4.26 µM.

The molecules below were run on NCI/ADR-RES ovarian (assay: NCI anticancer screen, dose series, 48 h).
`CCOC(=O)C1(Cc2ccc3c(c2)CCC3)Cc2cc3c(cc2C1)CCC3` showed a TGI of over 100 µM.
With `C=CCNC1=C2C[C@@H](C)C[C@@H](OC)[C@H](OC(=O)CCCCN)[C@H](C)/C=C(\C)[C@@H](OC(N)=O)[C@H](OC)/C=C\C=C(/C)C(=O)NC(=CC1=O)C2=O` the TGI was over 100 µM.
In the case of `O=Cc1cc2c(cc1-c1c(C=O)ccc3c1OCO3)OCO2`, the TGI is reported as over 10 µM.
For `COC(=O)Cc1cc(O)c(C/C=C(\C)CC/C=C(\C)C(O)C(=O)C=C(C)C)cc1O` (configuration not stated), the TGI was 58.4 µM.
Molecule `COc1ccc(/C=C(/C(=O)c2ccc(Cl)cc2)N2C=CC=CC2=C(C#N)C#N)cc1OC` has a TGI of 44.9 µM.

What follows are molecules tested on OVCAR-3 ovarian (assay: NCI anticancer screen, dose series, 48 h).
`CCOC(=O)C1(Cc2ccc3c(c2)CCC3)Cc2cc3c(cc2C1)CCC3` gave a TGI of over 100 µM.
`C=CCNC1=C2C[C@@H](C)C[C@@H](OC)[C@H](OC(=O)CCCCN)[C@H](C)/C=C(\C)[C@@H](OC(N)=O)[C@H](OC)/C=C\C=C(/C)C(=O)NC(=CC1=O)C2=O` was tested, and the TGI was 7.66 µM.
`C[C@@H]1C[C@H]2[C@@H]3CCC4=CC(=O)C=C[C@]4(C)[C@@]3(Cl)[C@@H](Cl)C[C@]2(C)[C@@]1(O)C(=O)COP(=O)(O)O` showed a TGI of over 100 µM.
For `O=Cc1cc2c(cc1-c1c(C=O)ccc3c1OCO3)OCO2`, the TGI was over 10 µM.
`COC(=O)Cc1cc(O)c(C/C=C(\C)CC/C=C(\C)C(O)C(=O)C=C(C)C)cc1O` (configuration not stated) showed a TGI of 42.5 µM.
`COc1ccc(/C=C(/C(=O)c2ccc(Cl)cc2)N2C=CC=CC2=C(C#N)C#N)cc1OC` gave a TGI of 15.2 µM.
`Nc1nc(Cl)c(N)c(NC23CC4CC(CC(C4)C2)C3)n1` gave a TGI of 3.62 µM.

Each molecule was assayed on OVCAR-4 ovarian (assay: NCI anticancer screen, dose series, 48 h).
Molecule `CCOC(=O)C1(Cc2ccc3c(c2)CCC3)Cc2cc3c(cc2C1)CCC3` has a TGI of 87.9 µM.
`C=CCNC1=C2C[C@@H](C)C[C@@H](OC)[C@H](OC(=O)CCCCN)[C@H](C)/C=C(\C)[C@@H](OC(N)=O)[C@H](OC)/C=C\C=C(/C)C(=O)NC(=CC1=O)C2=O` showed a TGI of 30.8 µM.
Work on `C[C@@H]1C[C@H]2[C@@H]3CCC4=CC(=O)C=C[C@]4(C)[C@@]3(Cl)[C@@H](Cl)C[C@]2(C)[C@@]1(O)C(=O)COP(=O)(O)O` yielded a TGI of over 100 µM.
Molecule `O=Cc1cc2c(cc1-c1c(C=O)ccc3c1OCO3)OCO2` has a TGI of over 10 µM.
Work on `COC(=O)Cc1cc(O)c(C/C=C(\C)CC/C=C(\C)C(O)C(=O)C=C(C)C)cc1O` (configuration not stated) yielded a TGI of over 100 µM.
In the case of `COc1ccc(/C=C(/C(=O)c2ccc(Cl)cc2)N2C=CC=CC2=C(C#N)C#N)cc1OC`, the TGI is reported as 20.5 µM.
In the case of `Nc1nc(Cl)c(N)c(NC23CC4CC(CC(C4)C2)C3)n1`, the TGI is reported as 4.21 µM.

What follows are molecules tested on OVCAR-5 ovarian (assay: NCI anticancer screen, dose series, 48 h).
For `CCOC(=O)C1(Cc2ccc3c(c2)CCC3)Cc2cc3c(cc2C1)CCC3`, the TGI was over 100 µM.
Molecule `C=CCNC1=C2C[C@@H](C)C[C@@H](OC)[C@H](OC(=O)CCCCN)[C@H](C)/C=C(\C)[C@@H](OC(N)=O)[C@H](OC)/C=C\C=C(/C)C(=O)NC(=CC1=O)C2=O` has a TGI of 34 µM.
`C[C@@H]1C[C@H]2[C@@H]3CCC4=CC(=O)C=C[C@]4(C)[C@@]3(Cl)[C@@H](Cl)C[C@]2(C)[C@@]1(O)C(=O)COP(=O)(O)O` gave a TGI of over 100 µM.
`COC(=O)Cc1cc(O)c(C/C=C(\C)CC/C=C(\C)C(O)C(=O)C=C(C)C)cc1O` (configuration not stated) was tested, and the TGI was over 100 µM.
Work on `COc1ccc(/C=C(/C(=O)c2ccc(Cl)cc2)N2C=CC=CC2=C(C#N)C#N)cc1OC` yielded a TGI of 32.6 µM.
